Like-named read-outs stand apart in the source and are kept apart here. Each block holds one compound with its values, some of them ahead of it.
Key:
[1] = set-up: method as in PMID 1898917; details: highest Kp of previous reports; cited from earlier work
[2] = pH 7.0; cited from earlier work
[3] = cited from earlier work
[4] = In vitro lens/buffer partition coefficient (Kp), isolated porcine lens, cassette mix, LC–MS/MS; details: for Kp at 4 h: pig, isolated porcine lens
[5] = set-up: method as in PMID 7341754, PMID 2724118; details: in rabbit and human; cited from earlier work
[6] = Drug distribution in the porcine lens by MALDI-IMS; details: for share of total lens volume into which the drugs distributed: pig, 4 h; for distribution pattern in the lens (MALDI-IMS): porcine lens, 4 h in vitro incubation
Protocol: After 4 h, the buffer was removed from the vials and the lenses were rinsed with HBSS–HEPES and gently blotted dry. The lenses were weighed, snap-frozen with liquid nitrogen in flat-bottomed plastic tubes, and then stored at −80 °C until sample preparation and analysis with MALDI-IMS. For the experiment, a smaller set of 16 drugs was used.
The frozen lenses were mounted onto a chuck using an optimal cutting temperature compound (Sakura Finetek, CA, USA) on the equatorial side. The lenses were sectioned to 10 μm thickness at −20 °C on a Leica CM Cryostat (S3050, Leica Microsystems GmbH, Germany), equipped with a FEATHER Microtome C35 blade (pfm medical, UK), and collected on a cryofilm (3C16UF, SECTION-LAB Co. Ltd. Yokohama, Japan) by modified Kawamoto method.[23] The film was subsequently mounted onto a microscopy glass slide using a double-sided copper tape. The slides were washed twice with 50 mM ammonium formate for 30 s and dried in a vacuum desiccator. The sample slides contained three lens sections from the drug mixture experiment and three blanks. […] Matrix α-cyano-4-hydroxycinnamic acid (7 mg/mL in 50% acetonitrile containing 1% trifluoro acetic acid) (Sigma-Aldrich, St. Louis, MO, USA) was added via spray deposition using 10 passes, flow rate of 100 μL/min, temperature of 77 °C, track spacing of 2.5 mm, and velocity of 1300 mm/min (HTX Industries, TM-Sprayer, NC, USA).
MALDI Fourier transform-ion cyclotron resonance (FT-ICR)-IMS was performed using a Bruker 7T solariX XR mass spectrometer (Bruker Daltonics, Germany) at a 75 μm spatial resolution.
The drugs were identified as their [M + H]^+ ions. Peak finding was performed using mass error less than 2.5 ppm. MALDI images for each detected compound were plotted using a 0.01 μ mass window. From the images of the individual drugs, the intensity profiles across a 30 pixel (2.25 mm) wide area in anterior–posterior axis were plotted with ImageJ software (National Institutes of Health, USA).

[7] = set-up: method as in PMID 2724118; details: lowest Kp of previous reports; cited from earlier work
in vitro = details: pig
[8] = Pharmacokinetic simulation of topical timolol instillation with lens compartment; set-up: species or system rabbit
Protocol: A pharmacokinetic simulation model for rabbit was built for topical timolol instillation based on the model of Ranta et al.[25] The lens compartment, separate from the reservoir compartment, was added to the model (Figure 1). The unknown parameter values for timolol distribution clearance between aqueous humor and lens (QLENS), Kp, and clearance from tear fluid to cornea (CLTF,CO) were obtained by adjusting the values manually until the simulated concentration in the lens matched with in vivo data on timolol distribution to the rabbit lens.[26] Finally, the distribution clearance between the aqueous humor and the reservoir (QRESERVOIR) and the volume of the reservoir (VRESERVOIR) were adjusted to match the corresponding parameters in the original model. For details of the model building and parameters, see the Supporting Information. STELLA software (v8.1.1, isee systems) was used to construct the simulation model.
Kinetic simulations were carried out to estimate how drug partitioning into the lens might affect ocular pharmacokinetics after single and multiple doses of eye drops. […] The run time was 7 days and the delta time was 0.5 min.
Pharmacokinetic simulations
The pharmacokinetic simulation model was built on a model of topical timolol instillation4, where a lens compartment, separate from the reservoir compartment, was added . Experimental concentration -time data, extracted with Webplotdigitizer ( v4.2, https://automeris.io/WebPlotDig-itizer), in the aqueous humor and lens after topical dosing of timolol 5 was used as a basis for the […]
The timolol distribution clearance between aqueous humor and lens (QLENS), lens-buffer partition coefficient (Kp) and clearance from tear fluid to cornea (CL TF,CO) were obtained by com-paring the simulated curves with experimental in vivo data on timolol distribution in the rabbit […]
and QLENS values, the distribution clearance between aqueous humor and reservoir (QRESERVOIR) and volume of the reservoir (VRESERVOIR) were changed to match the corresponding parameters in the original model4 (Supplementary table 1).
Supplementary figure 6. Adjustment of the lens-aqueous humor partition coefficient (Kp), the clearance between aqueous humor and lens (QLENS) and clearance from tear fluid to cornea (CLTF,CO) with experimental data5.
(1 picture or pasted object on this page, not shown here)
Supplementary table 1. Parameters for the pharmacokinetic simulation model.

[9] = rabbit model parameter, cited from earlier work
[10] = rabbit, adjusted from original model
[11] = rabbit, adjusted with experimental in vivo data

Compound: CCCCCOc1ccc(C2SC(=O)NC2=O)cc1OCC (centres unmarked) [CT-112]
lens Kp in previous reports [1]: 8

Compound: CCN(CC)c1ccc2c(-c3ccccc3C(=O)O)c3ccc(=[N+](CC)CC)cc-3oc2c1 [Rhodamine-B]
experimental log D7.0 [2]: 2

Compound: C[C@@H]1C[C@H]2[C@@H]3CCC4=CC(=O)C=C[C@]4(C)[C@@]3(F)[C@@H](O)C[C@]2(C)[C@@]1(O)C(=O)CO [dexamethasone]
concentration in the lens in vivo compared with aqueous humor, iris and ciliary body [3]: much lower

Compound: O=C(O)Cc1ccccc1Nc1c(Cl)cccc1Cl [diclofenac]
concentration equilibrium between incubate and lens at 4 h ([4]; porcine lens in vitro, incubation time 4 h (Figure S7)): would have required longer incubation time to reach true equilibria

Compound: O=C1OC2(c3ccc(O)cc3Oc3cc(O)ccc32)c2ccccc21 [fluorescein sodium]
experimental log D7.0 [2]: 0.1

Compound: CC(=O)/N=c1/sc(S(N)(=O)=O)nn1C [methazolamide]
Kp at 4 h [4]: 0.047

Compound: CC[C@@H]1C(=O)OC[C@@H]1Cc1cncn1C [pilocarpine]
lens Kp, previous literature [5]: 0.3–1.0
share of total lens volume into which the drugs distributed [6]: 27.1%
distribution pattern in the lens (MALDI-IMS) [6]: only in the capsule and cortex of the lens but not in the nucleus
lens Kp in previous reports [7]: about 0.3
concentration in the lens in vivo compared with aqueous humor, iris and ciliary body [3]: much lower
Kp at 4 h [4]: 0.145

Compound: Rhodamine-123
experimental log D7.0 [2]: 0.4

More lines, main results first:

share of total lens volume into which the drugs distributed [6]: 27.1%
Compound: CC(C)NCC(O)COc1cccc2[nH]ccc12 (centres unmarked) [pindolol]

Kp at 4 h (in vitro): 0.762
share of total lens volume into which the drugs distributed [6]: 27.1%
Compound: CC(C)NCC(O)COc1cccc2ccccc12 (centres unmarked) [propranolol]

QRESERVOIR (distribution clearance between aqueous humor and reservoir) [8, 10]: 11.888 µL/min
VRESERVOIR (reservoir volume) [8, 10]: 262 µL
CLTF,CO (clearance from tear fluid to cornea) [8, 11]: 1.3 µL/min
QLENS (distribution clearance between aqueous humor and lens) [8, 11]: 0.6 µL/min
Kp ([8]; topical, rabbit lens, adjusted manually to in vivo data on timolol distribution (Lee et al.), read-out: Kp (lens-buffer partition coefficient), model parameter): 0.35
Compound: CC(C)(C)NC[C@H](O)COc1nsnc1N1CCOCC1 [timolol]
kel (elimination rate constant) ([9]; aqueous humor, ref SI 4, 8): 0.057 min⁻¹
CLTF,CJ (clearance from tear fluid by conjunctival absorption) ([9]; ref SI 4, 7): 10.4 µL/min
concentration in the lens in vivo compared with aqueous humor, iris and ciliary body [3]: much lower

share of total lens volume into which the drugs distributed [6]: 27.1%
Compound: Clc1ccc2nsnc2c1NC1=NCCN1 [tizanidine]
distribution pattern in the lens (MALDI-IMS) [6]: only in the capsule and cortex of the lens but not in the nucleus
